PubChem BioAssay AID1845211 (Molecular Pharmacology Branch, DTP, NCI, 2023)
“And” between values parts separate entries of the source, which are not always exact repeats. Identical values can stand only once.

Test system: NCI-H322M multicellular tumor spheroids, viability (% test/control)
Assay: Anticancer human tumor NCI-H322M cell line growth inhibition;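 on viability, T/C: spheroids exposed to compound for seven days before readout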
Settings: for viability, T/C: stronger effect = lower value
From the text: Multicellular complex tumor spheroid response to DNA repair inhibitors in combination with DNA-damaging drugs
This study explores the anticancer activities of DNA-damaging drugs and inhibitors of DNA damage repair, both as single agents and in combinations. Complex tumor spheroids comprised of malignant cells, endothelial cells and mesenchymal stem cells served as an in vitro model for human solid tumors. This model system incorporates physiologically relevant features and patient-derived or established malignant cell lines with clinically relevant genetic alterations from many tumor types. Twenty-six patient-derived or established malignant cell lines were evaluated representing sarcoma, melanoma, small cell lung cancer (SCLC), non-small cell lung cancer (NSCLC), as well as bladder, ovarian and pancreatic cancers. The concentration ranges selected for each drug and investigational agent were based upon clinically achievable concentrations if the clinical Cmax of the agent was known.
Compounds. The drugs and compounds olaparib (NSC753686), talazoparib (NSC767125), berzosertib (NSC777718), elimusertib (NSC800525), nedisertib (NSC802822), VX-984 (NSC792969), AZD-1390 (NSC803789), temozolomide (NSC362856), topotecan (NSC609699), trabectedin (NSC813783), staurosporine (NSC755774), and gemcitabine (NSC613327) were obtained from the National Cancer Institute (NCI) Developmental Therapeutics Program Chemical Repository. The FDA-approved anticancer drug set is available from the Developmental Therapeutics Program at https://dtp.cancer.gov/organization/dscb/obtaining/available_plates.htm. […] The stock solutions were prepared in dimethyl sulfoxide (DMSO, Sigma-Aldrich, St. Louis, MO, cat. D2650) at 400-fold the tested concentration and stored at -70 degrees C. Prior to their use, the stock solutions were diluted in fresh medium and the final DMSO concentration in the assay was 0.25% (v/v). All drugs and investigational agents were tested over a range starting from a high concentration at or near the clinical Cmax and decreasing in half-log increments. If the clinical Cmax for an agent had not been determined, the highest concentration tested was 10 microM.
Cell Lines. The patient-derived cancer cell (PDC) lines: 156681-154-R-J1-PDC, 283228-195-R-J1-PDC, 287954-098-R-J1-PDC, 292921-168-R-J2-PDC, 349418-098-R-PDC, 425362-245-T-J1-PDC, 556581-035-R-J1-PDC, and BL0293-F563-PDC were received from the NCI Patient-Derived Models Repository (PDMR, https://pdmr.cancer.gov). The established cell lines HS-SY-2 (RRID:CVCL_8719), MPNST, and SYO-1 (RRID:CVCL_7146) were obtained from the Sloan Kettering Institute. The alveolar soft parts sarcoma cell line ASPS-1 (RRID:CVCL_S738) was established at the NCI and grown from internal seed stocks. The following established cell lines were purchased from the American Type Culture Collection (ATCC, Manassas, VA): G-401 (ATCC, cat. CRL-1441, RRID:CVCL_0270), SW982 (ATCC, cat. HTB-93, RRID:CVCL_1734), VA-ES-BJ (ATCC, cat. CRL-2138, RRID:CVCL_1785), NCI-H719 (ATCC, cat. CRL-5837, RRID:CVCL_1582), NCI-H196 (ATCC, cat. CRL-5823, RRID:CVCL_1509), NCI-H841 (ATCC, cat. CRL-5845, RRID:CVCL_1595), NCI-H1618 (ATCC, cat. CRL-5879, RRID:CVCL_1480), NCI-H1876 (ATCC, cat. CRL-5902, RRID:CVCL_1503), DMS 114 (ATCC, cat. CRL-2066; RRID:CVCL_1174), NCI-H211 (ATCC, cat. CRL-5824; RRID:CVCL_1529), and SW 1271 (ATCC, cat. CRL-2177, RRID:CVCL_1716). The small cell lung cancer cell line COR-L88 was purchased from Sigma-Aldrich (cat. 92031917-1VL, RRID:CVCL_1141). The non-small cell lung cancer cell lines NCI-H226 (RRID:CVCL_1544) and NCI-H322M (RRID:CVCL_1557) were established at the NCI and grown from internal seed stocks. Pooled donor human umbilical vein endothelial cells (HUVEC, Lonza, cat. CC-2519) and human mesenchymal stem cells (hMSC, Lonza, cat. PT-2501) were purchased from Lonza (Walkersville, MD).
Cell Culture. All cells were maintained in an incubator at 37 degrees C and 5% CO2 with 95% humidity. […]

Question: With `COc1cc(C)[nH]c(=O)c1CN1CCc2c(Cl)cc(C(OC)C3COC3)c(Cl)c2C1=O` (configuration not stated) as the compound, how does the viability, T/C (compound 0.0316 µM) read?
Answer: 104% and 96.2% and 98.2%

Question: What about the viability, T/C (compound 0.1 µM) of the same compound?
Answer: 87.7% and 103% and 84%

Question: And the viability, T/C (compound 0.316 µM)?
Answer: 89.9% and 91.7% and 80.2%

Question: And the viability, T/C (compound 1 µM)?
Answer: 74.3% and 84.4% and 89.6%

Question: What about the viability, T/C (compound 3.16 µM) of the same compound?
Answer: 93.3% and 91.8% and 102%

Question: And the viability, T/C (compound 10 µM)?
Answer: 82% and 96.2% and 93.1%

Question: And the IC50 (curve of compound)?
Answer: > 10 µM

Question: Which results are given for `COc1cc(C)[nH]c(=O)c1CN1CCc2c(Cl)cc(C(OC)C3COC3)c(Cl)c2C1=O` (configuration not stated) + Cn1nnc2c(C(N)=O)ncn2c1=O?
Answer: IC50 (curve of first compound, second compound 1 µM): > 10 µM; IC50 (curve of first compound, second compound 3.16 µM): > 10 µM; IC50 (curve of first compound, second compound 10 µM): > 10 µM; IC50 (curve of first compound, second compound 31.6 µM): > 10 µM; IC50 (curve of first compound, second compound 100 µM): > 10 µM; viability, T/C (second compound 1 µM, first compound 0.0316 µM): 90.6%; viability, T/C (second compound 1 µM, first compound 0.1 µM): 93.2%; viability, T/C (second compound 1 µM, first compound 0.316 µM): 97.7%; viability, T/C (second compound 1 µM, first compound 1 µM): 106%; viability, T/C (second compound 1 µM, first compound 3.16 µM): 88.1%; viability, T/C (second compound 1 µM, first compound 10 µM): 93.3%; viability, T/C (second compound 3.16 µM, first compound 0.0316 µM): 97.5%; viability, T/C (second compound 3.16 µM, first compound 0.1 µM): 85.8%; viability, T/C (second compound 3.16 µM, first compound 0.316 µM): 97.4%; viability, T/C (second compound 3.16 µM, first compound 1 µM): 99.5%; viability, T/C (second compound 3.16 µM, first compound 3.16 µM): 95.4%; viability, T/C (second compound 3.16 µM, first compound 10 µM): 100%; viability, T/C (second compound 10 µM, first compound 0.0316 µM): 100%; viability, T/C (second compound 10 µM, first compound 0.1 µM): 108%; viability, T/C (second compound 10 µM, first compound 0.316 µM): 97.2%; viability, T/C (second compound 10 µM, first compound 1 µM): 92.3%; viability, T/C (second compound 10 µM, first compound 3.16 µM): 90.2%; viability, T/C (second compound 10 µM, first compound 10 µM): 91.6%; viability, T/C (second compound 31.6 µM, first compound 0.0316 µM): 91%; viability, T/C (second compound 31.6 µM, first compound 0.1 µM): 113%; viability, T/C (second compound 31.6 µM, first compound 0.316 µM): 102%; viability, T/C (second compound 31.6 µM, first compound 1 µM): 92.3%; viability, T/C (second compound 31.6 µM, first compound 3.16 µM): 94.1%; viability, T/C (second compound 31.6 µM, first compound 10 µM): 96.5%; viability, T/C (second compound 100 µM, first compound 0.0316 µM): 109%; viability, T/C (second compound 100 µM, first compound 0.1 µM): 106%; viability, T/C (second compound 100 µM, first compound 0.316 µM): 114%; viability, T/C (second compound 100 µM, first compound 1 µM): 89.7%; viability, T/C (second compound 100 µM, first compound 3.16 µM): 95%; viability, T/C (second compound 100 µM, first compound 10 µM): 101%

Question: With `COc1cc(C)[nH]c(=O)c1CN1CCc2c(Cl)cc(C(OC)C3COC3)c(Cl)c2C1=O` (configuration not stated) + CC[C@@]1(O)C(=O)OCc2c1cc1n(c2=O)Cc2cc3c(CN(C)C)c(O)ccc3nc2-1 as the compound, how does the IC50 (curve of first compound, second compound 0.003 µM) read?
Answer: > 10 µM

Question: And the IC50 (curve of first compound, second compound 0.00949 µM)?
Answer: > 10 µM

Question: And the IC50 (curve of first compound, second compound 0.03 µM)?
Answer: > 10 µM

Question: And the IC50 (curve of first compound, second compound 0.0949 µM)?
Answer: > 10 µM

Question: What about the IC50 (curve of first compound, second compound 0.3 µM) of the same compound?
Answer: 9.8 µM

Question: And the viability, T/C (second compound 0.003 µM, first compound 0.0316 µM)?
Answer: 79.2%

Question: And the viability, T/C (second compound 0.003 µM, first compound 0.1 µM)?
Answer: 75.4%

Question: And the viability, T/C (second compound 0.003 µM, first compound 0.316 µM)?
Answer: 74.4%

Question: And the viability, T/C (second compound 0.003 µM, first compound 1 µM)?
Answer: 73.1%

Question: And the viability, T/C (second compound 0.003 µM, first compound 3.16 µM)?
Answer: 84.3%

Question: And the viability, T/C (second compound 0.003 µM, first compound 10 µM)?
Answer: 88%

Question: And the viability, T/C (second compound 0.00949 µM, first compound 0.0316 µM)?
Answer: 83.9%

Question: What about the viability, T/C (second compound 0.00949 µM, first compound 0.1 µM) of the same compound?
Answer: 65.2%

Question: And the viability, T/C (second compound 0.00949 µM, first compound 0.316 µM)?
Answer: 65.2%

Question: And the viability, T/C (second compound 0.00949 µM, first compound 1 µM)?
Answer: 74%

Question: And the viability, T/C (second compound 0.00949 µM, first compound 3.16 µM)?
Answer: 78.6%

Question: What about the viability, T/C (second compound 0.00949 µM, first compound 10 µM) of the same compound?
Answer: 89.6%

Question: And the viability, T/C (second compound 0.03 µM, first compound 0.0316 µM)?
Answer: 69%

Question: And the viability, T/C (second compound 0.03 µM, first compound 0.1 µM)?
Answer: 68.8%

Question: What about the viability, T/C (second compound 0.03 µM, first compound 0.316 µM) of the same compound?
Answer: 72.8%

Question: And the viability, T/C (second compound 0.03 µM, first compound 1 µM)?
Answer: 69.3%

Question: And the viability, T/C (second compound 0.03 µM, first compound 3.16 µM)?
Answer: 73.4%

Question: And the viability, T/C (second compound 0.03 µM, first compound 10 µM)?
Answer: 71.7%

Question: What about the viability, T/C (second compound 0.0949 µM, first compound 0.0316 µM) of the same compound?
Answer: 72%

Question: And the viability, T/C (second compound 0.0949 µM, first compound 0.1 µM)?
Answer: 66.9%

Question: And the viability, T/C (second compound 0.0949 µM, first compound 0.316 µM)?
Answer: 70.8%

Question: What about the viability, T/C (second compound 0.0949 µM, first compound 1 µM) of the same compound?
Answer: 58.1%

Question: What about the viability, T/C (second compound 0.0949 µM, first compound 3.16 µM) of the same compound?
Answer: 65.4%

Question: And the viability, T/C (second compound 0.0949 µM, first compound 10 µM)?
Answer: 71.2%

Question: What about the viability, T/C (second compound 0.3 µM, first compound 0.0316 µM) of the same compound?
Answer: 60.5%

Question: What about the viability, T/C (second compound 0.3 µM, first compound 0.1 µM) of the same compound?
Answer: 49.9%

Question: What about the viability, T/C (second compound 0.3 µM, first compound 0.316 µM) of the same compound?
Answer: 48.5%

Question: What about the viability, T/C (second compound 0.3 µM, first compound 1 µM) of the same compound?
Answer: 48.5%

Question: What about the viability, T/C (second compound 0.3 µM, first compound 3.16 µM) of the same compound?
Answer: 54.9%

Question: And the viability, T/C (second compound 0.3 µM, first compound 10 µM)?
Answer: 50.3%
